Results from patent publication US4880798A, “Cephalosporin derivatives” (Mochida Pharmaceutical Co., Ltd., priority 1986, dated 1989).
In brackets after ≈: the same amount, converted by molar mass. Like-named read-outs stand apart in the source and are kept apart here.

Legend:
[1] = system: Escherichia coli NIHJ JC 2; test: Antibacterial activity in vitro (MIC), agar plate dilution method; format: cell-based; details: NIHJJC2, Mueller Hinton agar, 10^6 cells/ml, 37° C., 20 hours
Method: (§1) Antibacterial activity in vitro was determined in accordance with the agar plate dilution method.
(§2) A platinum loop each of test bacteria (10^6 cells/ml), cultured in Mueller Hinton broth, was inoculated on Mueller Hinton agar plates which contained test compounds at various concentrations. After cultivating at 37° C. for 20 hours, the minimum inhibitory concentration (MIC μg/ml) was determined.

[2] = system: Klebsiella pneumoniae IFO 3317; test: as above; format: cell-based
Method: as §1, §2

[3] = system: Serratia marcescens IFO 3759; test: as above; format: cell-based
Method: as §1, §2

[4] = system: Staphylococcus aureus 209P; test: as above; format: cell-based; details: Mueller Hinton agar, 10^6 cells/ml, 37° C., 20 hours
Method: as §1, §2

[5] = system: Pseudomonas aeruginosa 34; test: Protection against systemic bacterial infection in ICR mice (ED50); format: in vivo; details: 168 h
Method: (§3) Protection ability against systemic bacterial infection was determined as follows. An aqueous suspension of test bacteria was intraperitoneally injected into 10 four week old ICR mice. One hour after the infection, test compounds were intravenously administered. The number of surviving mice was counted 1 week after injection to determine the dose at which 50% of the test animals were alive (ED50 : mg/kg).

[6] = system: Serratia marcescens 274; test: as above; format: in vivo; details: 168 h
Method: as §3

[7] = system: Staphylococcus aureus 4; test: as above; format: in vivo; details: iv, 168 h, Staphylococcus aureus 4 (methicillin-resistant strain), i.p. infection, compound i.v. one hour after infection, survival 1 week
Method: as §3

[8] = LD50, Probit method; details: in vivo, iv
Method: Next, LD50 of representative examples of the compounds of the present invention is shown in Table 3 wherein LD50 was determined in accordance with the Probit method.

[9] = system: Pseudomonas aeruginosa 34; test: Antibacterial activity in vitro (MIC), agar plate dilution method; format: cell-based
Method: as §1, §2

[10] = system: Enterobacter 8; test: Protection against systemic bacterial infection in ICR mice (ED50); format: in vivo; details: 168 h
Method: as §3

[11] = system: Escherichia coli 67; test: as above; format: in vivo; details: iv, 168 h, Escherichia coli 67, i.p. infection, compound i.v. one hour after infection, survival 1 week
Method: as §3

[12] = system: Klebsiella pneumoniae IFO 3317; test: as above; format: in vivo; details: IFO3317, iv, 168 h
Method: as §3

[13] = system: Pseudomonas aeruginosa IFO 3445; test: as above; format: in vivo; details: IFO3445, iv, 168 h
Method: as §3

[14] = system: Staphylococcus aureus 58; test: as above; format: in vivo; details: iv, 168 h, Staphylococcus aureus 58 (methicillin-resistant strain), i.p. infection, compound i.v. one hour after infection, survival 1 week
Method: as §3

[15] = IFO3317, Klebsiella pneumoniae IFO 3317, Mueller Hinton agar, 10^6 cells/ml, 37° C., 20 hours, read-out: MIC
[16] = IFO3759, Serratia marcescens IFO 3759, Mueller Hinton agar, 10^6 cells/ml, 37° C., 20 hours, read-out: MIC
[17] = iv, Pseudomonas aeruginosa 34, i.p. infection, ICR mice, compound i.v. one hour after infection, survival 1 week, read-out: ED50
[18] = iv, Serratia marcescens 274, i.p. infection, ICR mice, compound i.v. one hour after infection, survival 1 week, read-out: ED50
[19] = Pseudomonas aeruginosa 34, Mueller Hinton agar, 10^6 cells/ml, 37° C., 20 hours, read-out: MIC
[20] = iv, Enterobacter 8, i.p. infection, ICR mice, compound i.v. one hour after infection, survival 1 week, read-out: ED50
[21] = Klebsiella pneumoniae IFO 3317, i.p. infection, ICR mice, compound i.v. one hour after infection, survival 1 week, read-out: ED50
[22] = Pseudomonas aeruginosa IFO 3445, i.p. infection, ICR mice, compound i.v. one hour after infection, survival 1 week, read-out: ED50

Structure (SMILES)	MIC [1] [µg/mL]	MIC [2, 15] [µg/mL]	MIC [3, 16] [µg/mL]	MIC [4] [µg/mL]	ED50 [5, 17] [mg/kg]	ED50 [6, 18] [mg/kg]	ED50 [7] [mg/kg]	LD50 [8] [mg/kg]	ED50 [11] [mg/kg]	ED50 [14] [mg/kg]	further results
Cc1cc(SCC2=C(C(=O)O)N3C(=O)[C@@H](NC(=O)/C(=N\OCc4cc(O)c(O)c(C(=O)O)c4)c4csc(N)n4)[C@H]3SC2)n2nc(C(=O)O)nc2n1 [Compound 3, (6R,7R)-7-[2-(2-amino-4-thiazolyl)-2-[Z-[(3-carboxy-4,5-dihydroxyphenyl)methyl]oxyimino]acetamido]-3-[(2-carboxy-5-methyl-s-triazolo[1,5-a]pyrimidin-7-yl)thiomethyl]-8-oxo-5-thia-1-azabicyclo[4.2.0]oct-2-ene-2-carboxylic acid]	0.78 (≈ 1.03 µM)	0.1 (≈ 0.132 µM)	0.78 (≈ 1.03 µM)	6.25 (≈ 8.25 µM)	46.8	0.72	2.08	> 4000	–	–	–
CC(C)(O/N=C(\C(=O)N[C@@H]1C(=O)N2C(C(=O)[O-])=C(C[n+]3ccccc3)CS[C@H]12)c1csc(N)n1)C(=O)O [CAZ, Ceftazidime, reference compound]	0.2 (≈ 0.366 µM)	–	–	–	–	–	–	–	2.8	–	MIC ([2]; Klebsiella pneumoniae, IFO3317, 20 h): < 0.05 µg/mL; MIC ([9]; Pseudomonas aeruginosa, 34, 20 h): 3.13 µg/mL (≈ 5.73 µM); MIC ([3]; Serratia marcescens, IFO3759, 20 h): < 0.05 µg/mL; ED50 ([10]; Enterobacter, 8, iv): 4.36 mg/kg; ED50 ([12]; Klebsiella pneumoniae): 1.73 mg/kg; ED50 ([5]; Pseudomonas aeruginosa, 34, iv): 123 mg/kg; ED50 ([13]; Pseudomonas aeruginosa): 230 mg/kg; ED50 ([6]; Serratia marcescens, 274, iv): 3.62 mg/kg
Cc1cc(SCC2=C(C(=O)O)N3C(=O)[C@@H](NC(=O)/C(=N\OCc4cc(C(=O)O)cc(O)c4O)c4csc(N)n4)[C@H]3SC2)n2nc(C(=O)O)nc2n1 [Compound 2, (6R,7R)-7-[2-(2-amino-4-thiazolyl)-2-[Z-[(5-carboxy-2,3-dihydroxyphenyl)methyl]oxyimino]acetamido]-3-[(2-carboxy-5-methyl-s-triazolo[1,5-a]pyrimidin-7-yl)thiomethyl]-8-oxo-5-thia-1-azabicyclo[4.2.0]oct-2-ene-2-carboxylic acid]	0.39 (≈ 0.515 µM)	0.05 (≈ 0.066 µM)	0.1 (≈ 0.132 µM)	6.25 (≈ 8.25 µM)	–	0.55	–	> 4000	1.1	9.65	MIC [9, 19]: 0.2 µg/mL (≈ 0.264 µM); ED50 [10, 20]: 1.31 mg/kg; ED50 [12, 21]: 0.34 mg/kg; ED50 [13, 22]: 33.7 mg/kg
Cc1cc(SCC2=C(C(=O)O)N3C(=O)[C@@H](NC(=O)/C(=N\OCc4ccc(O)c(O)c4C(=O)O)c4csc(N)n4)[C@H]3SC2)n2nc(C(=O)O)nc2n1 [Compound 4, (6R,7R)-7-[2-(2-amino-4-thiazolyl)-2-[Z-[(2-carboxy-3,4-dihydroxyphenyl)methyl]oxyimino]acetamido]-3-[(2-carboxy-5-methyl-s-triazolo[1,5-a]pyrimidin-7-yl)thiomethyl]-8-oxo-5-thia-1-azabicyclo[4.2.0]oct-2-ene-2-carboxylic acid]	0.39 (≈ 0.515 µM)	0.05 (≈ 0.066 µM)	0.39 (≈ 0.515 µM)	3.13 (≈ 4.13 µM)	50.6	0.97	3.35	> 4000	–	–	–
Cn1nnnc1SCC1=C(C(=O)O)N2C(=O)[C@@H](NC(=O)[C@H](O)c3ccccc3)[C@H]2SC1 [CMD, Cefamandole, reference compound]	–	–	–	–	–	–	5.94	–	–	18.9	–
Cc1cc(SCC2=C(C(=O)O)N3C(=O)[C@@H](NC(=O)/C(=N\OCc4c(C(=O)O)ccc(O)c4O)c4csc(N)n4)[C@H]3SC2)n2nc(C(=O)O)nc2n1 [Compound 1, (6R,7R)-7-[2-(2-amino-4-thiazolyl)-2-[Z-[(6-carboxy-2,3-dihydroxyphenyl)methyl]oxyimino]acetamido]-3-[(2-carboxy-5-methyl-s-triazolo[1,5-a]pyrimidin-7-yl)thiomethyl]-8-oxo-5-thia-1-azabicyclo[4.2.0]oct-2-ene-2-carboxylic acid]	0.78 (≈ 1.03 µM)	< 0.05	0.39 (≈ 0.515 µM)	6.25 (≈ 8.25 µM)	–	0.5	–	> 4000	1.59	15.9	MIC [9, 19]: 0.2 µg/mL (≈ 0.264 µM); ED50 [10, 20]: 1.28 mg/kg; ED50 [12, 21]: 0.55 mg/kg; ED50 [13, 22]: 52 mg/kg
Cc1cc(SCC2=C(C(=O)O)N3C(=O)[C@@H](NC(=O)/C(=N\OCc4ccc(C(=O)O)c(O)c4O)c4csc(N)n4)[C@H]3SC2)n2nc(C(=O)O)nc2n1 [Compound 5, (6R,7R)-7-[2-(2-amino-4-thiazolyl)-2-[Z-[(4-carboxy-2,3-dihydroxyphenyl)methyl]oxyimino]acetamido]-3-[(2-carboxy-5-methyl-s-triazolo[1,5-a]pyrimidin-7-yl)thiomethyl]-8-oxo-5-thia-1-azabicyclo[4.2.0]oct-2-ene-2-carboxylic acid]	0.78 (≈ 1.03 µM)	0.05 (≈ 0.066 µM)	0.78 (≈ 1.03 µM)	3.13 (≈ 4.13 µM)	81.2	0.75	4.21	> 4000	–	–	–
